Source: BigSolDB 2.1

CC(C)=CCC[C@@H](C)[C@H]1CC[C@@]2(C)C3=C(CC[C@]12C)[C@@]1(C)CC[C@H](O)C(C)(C)[C@@H]1CC3
Settings | solubility (mole fraction)
in DMF, 277.15 K | 0.00035
in DMF, 284.65 K | 0.00051
in DMF, 289.15 K | 0.00063
in DMF, 294.65 K | 0.00073
in DMF, 297.35 K | 0.00089
in DMF, 300.15 K | 0.00103
in DMF, 303.05 K | 0.00138
in DMF, 308.46 K | 0.00187
in DMF, 318.55 K | 0.00294
in DMSO, 293.95 K | 0.00015
in DMSO, 297.65 K | 0.00019
in DMSO, 302.35 K | 0.00024
in DMSO, 307.15 K | 0.00031
in DMSO, 312.95 K | 0.00042
in DMSO, 318.69 K | 0.00057
in DMSO, 337.99 K | 0.00136
in acetone, 278.65 K | 0.00066
in acetone, 283.75 K | 0.00087
in acetone, 288.45 K | 0.00105
in acetone, 293.25 K | 0.00127
in acetone, 298.05 K | 0.00157
in acetone, 302.75 K | 0.00193
in acetone, 307.55 K | 0.00237
in acetone, 318.36 K | 0.0036
in acetonitrile, 277.09 K | 3e-05
in acetonitrile, 288.55 K | 6e-05
in acetonitrile, 293.35 K | 9e-05
in acetonitrile, 298.15 K | 0.00013
in acetonitrile, 303.05 K | 0.00015
in acetonitrile, 307.55 K | 0.00019
in acetonitrile, 312.25 K | 0.00026
in acetonitrile, 317.05 K | 0.00038
in ethanol, 277.95 K | 0.00036
in ethanol, 285.74 K | 0.00053
in ethanol, 293.45 K | 0.00075
in ethanol, 298.25 K | 0.00092
in ethanol, 307.15 K | 0.00135
in ethanol, 312.35 K | 0.00168
in ethanol, 318.05 K | 0.00214
in ethyl acetate, 277.67 K | 0.00076
in ethyl acetate, 288.55 K | 0.00127
in ethyl acetate, 293.25 K | 0.00165
in ethyl acetate, 298.05 K | 0.00187
in ethyl acetate, 302.85 K | 0.00235
in ethyl acetate, 307.45 K | 0.00284
in ethyl acetate, 318.64 K | 0.00443
in isopropanol, 278.07 K | 0.00047
in isopropanol, 287.81 K | 0.0006
in isopropanol, 298.84 K | 0.00095
in isopropanol, 307.27 K | 0.00159
in methanol, 277.78 K | 3e-05
in methanol, 288.15 K | 5e-05
in methanol, 298.15 K | 9e-05
in methanol, 303.05 K | 0.00011
in methanol, 312.15 K | 0.00016
in methanol, 316.95 K | 0.00021
in methanol, 321.65 K | 0.00032
in n-propanol, 278.07 K | 0.0009
in n-propanol, 287.81 K | 0.00144
in n-propanol, 298.84 K | 0.00209
in n-propanol, 307.27 K | 0.00304
in n-propanol, 318.93 K | 0.00478
